Columns and labels:
Format in all cases: cell-based, human
[1] = tested on: Oct3/4-GFP+ MCF7 cells; test: Screen for selective inhibition of Oct3/4-GFP+MCF7 cells (GFP level / cell viability, 384 well plates); conditions: initial screen; 3 day exposure, 5 μM, triplicate samples, relative changes in GFP levels
Protocol: MCF7 cells were used as the target population. Control cells consisted of Oct3/4-GFP-cells that were infected with a GFP-expressing lentivirus as a way of controlling for GFP expression. Initial screenings were performed in 384 well plates on triplicate samples. A fluorescent plate reader was used to quantify relative changes in GFP levels after a 3 day exposure to a 5 μM concentrations of each compound. […] These experiments were performed in 12 well plates in which 2000 cells/well were initially seeded and allowed to attach for one day. The following day (day 0), the medium was replaced with fresh medium containing the indicated concentrations of each compound. Cell counts were then performed manually on triplicate wells. Bars represent standard errors.
The cell viability assay was performed as follows:
Trypsinize cell and resuspend in MCF7 culture medium at a density of 4×10^4/ml Culture medium: alpha MEM, 10% FBS, 2 mM Glutamine, 1 mM Sodium Pyruvate, 1 mM non-essential amino acids, 100 U/ml Penicillin/Streptomycin
(1) dilute compounds to 30 μM using alpha MEM
(2) add 5 μl compounds to each well (final concentration 5 μM)
(3) add 25 μl cell suspension to each well (1000 cells/well)
(4) incubate cells with compounds for 72 hours at 37° C., 5% CO2
3. […] The plates were then read on SpectraMax M5 Microplate Reader using the wavelength of excitation 560 nm/emission 590 nm.

[2] = tested on: MCF7 cells and Oct3/4-GFP+MCF7 cell population; test: Hoechst 33342 side population (SP) exclusion; conditions: exposure to 20 μM Reserpine; SP fractions of MCF7 and Oct3/4-GFP+MCF7 cells
Protocol: In other studies, Oct3/4-GFP+MCF7 cells were examined by qRT-PCR for expression of the breast cancer CSC markers CD133 and Oct3/4. After normalizing to GAPDH, the ratios of these transcripts in Oct3/4-GFP+MCF7 cells and non-CSC-MCF7 cells were 6.3 for CD 133 and 2.5 for Oct3/4. […] The SP is due to CSCs ability to exclude the dye Hoechst 33342 and reflects high expression of ABCG2 transporters such as MDR1 and BRCP. […] These fractions could also be reduced by >70% following exposure to 20 μM Reserpine, which inhibits ABC transporters. Moreover, the overall mean fluorescence intensity of the entire Oct3/4-GFP+MCF population was two-fold lower than that of the MCF7population. Thus, based on independent qRT-PCR assessments of CSC gene expression profiles and on uptake/exclusion of Hoechst 33342, one can conclude that the Oct3/4-GFP+MCF7 population consists of highly enriched and stable cells that are unable to differentiate into TACs.

[3] = tested on: Oct3/4-GFP+MCF7 cells versus unfractionated MCF7 cells; test: Differential chemotherapeutic responses, viable adherent cell counts by trypan blue exclusion; conditions: FIG. 6; viable adherent cells over time
Protocol: FIG. 6. Differential chemotherapeutic responses of MCF7 and Oct3/4-GFP+MCF7 cells. 10^5 unfractionated, MCF7 cells (dotted line) or Oct3/4GFP+MCF7 cells (broken line) were seeded into 6 well plates and allowed to achieve ca. 30-50% confluence. The indicated concentrations of adriamycin, etoposide, 5-fluorouracil, cis-platinum, methotrexate, and taxol were then added (day 0). The total number of viable adherent cells was then determined at the indicated times by trypan blue exclusion. […] Note that in most cases Oct4/4-GFP+MCF7 actually grew in the presence of all agents. These experiments were repeated at least two additional times with similar outcomes.
Differential chemosensitivities of Oct3/4-GFP+MCF7 cells. It is believed that CSCs are more resistant to chemotherapeutic agents than TACs, thus at least partly accounting for the propensity of many tumors to relapse after an initial response. To test this idea, MCF7 cells and Oct3/4-GFP+MCF7 CSCs were exposed to six different chemotherapeutic agents commonly employed to treat breast cancer.

With `Cl.NC[C@@H]1O[C@H](C23CC4CC(CC(C4)C2)C3)Cc2c1ccc(O)c2O` [A77636] the “selectivity for Oct3/4-GFP+MCF7 cells over control GFP-lentivirus cells” value [1] was “potentially selective agents”.
In the case of `COC(=O)[C@H]1[C@H]2C[C@@H]3c4[nH]c5cc(OC)ccc5c4CCN3C[C@H]2C[C@@H](OC(=O)c2cc(OC)c(OC)c(OC)c2)[C@@H]1OC` [Reserpine], the “reduction of side population (SP) fractions” value [2] is reported as over 70%.
In the case of `CC(=O)c1c(O)c(C)c(O)c(Cc2c(O)c3c(c(C(=O)/C=C/c4ccccc4)c2O)OC(C)(C)C=C3)c1O` [Rottlerin, 5,7-dihydroxy-2,2-dimethyl-6-(2,4,6-trihydroxy-3-methyl-5-acetylbenzyl)-8-cinnamoyl-1,2-chromene], the “selectivity for Oct3/4-GFP+MCF7 cells over control GFP-lentivirus cells” value [1] is reported as “potentially selective agents”.
For `CC(=O)O[C@H]1C(=O)[C@@]2(C)[C@H]([C@H](OC(=O)c3ccccc3)[C@]3(O)C[C@H](OC(=O)[C@H](O)[C@@H](NC(=O)c4ccccc4)c4ccccc4)C(C)=C1C3(C)C)[C@]1(OC(C)=O)CO[C@@H]1C[C@@H]2O` [taxol], the “sensitivity/resistance of Oct3/4-GFP+MCF7 cells relative to MCF7 cells” value [3] was “significantly more sensitive”.

Reference: patent publication US20100298352A1, “SMALL MOLECULE INHIBITORS OF CANCER STEM CELLS” (University of Pittsburgh - Of the Commonwealth System of …, priority 2009, published 2010)
